Measured values from patent US12473250B2, “Molecular design of new antibiotics and antibiotic adjuvants against MCR strains” (priority 2019, dated 2025).
“Also recorded” adds a separate entry of the source.

Key:
[1] = system: colistin resistant MCR (+) E. Coli strains; assay: Synergy study: colistin MIC in the presence of compound; type: cell-based
In short: (§1)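 After 24 hours, MIC was read as the lowest concentration without visible growth. Drugs were tested singly and in combination by CLSI broth microdilution, equal-amount colistin:LC compound mixtures serially diluted 2-fold at a fixed synergy concentration.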

[2] = system: colistin resistant MCR (−) E. Coli strains; assay: as above; type: cell-based
In short: as §1

[3] = system: colistin resistant MCR (−) E. Cloacae strain 7023456439; assay: as above; type: cell-based; settings: strain 7023456439 E. Cloacae
In short: as §1

[4] = system: ACBA multi-drug resistant strains; assay: Synergy of LC100 with colistin against multi-drug resistant strains (Table 5); type: cell-based, Acinetobacter baumannii
Description: (§2) The MICs of the individual drugs and LC compound in combinations were determined using the broth microdilution technique as recommended by the CLSI whereby the two anti-microbial agents were added in an equal amount. (e.g.: 50 μL of Colistin: 50 μL of LC compounds). Diluted media containing compounds and antibiotics will be serially diluted 2-fold, and LC compounds and antibiotics alone or in combination will be assayed at fixed synergy concentration. In all cases, the lowest concentration at which no visible growth occurred was be recorded to be the MIC value of individual and combined antibacterial agents. The results were obtained after 24 hours of incubation.

[5] = system: Gram positive bacteria (SA and MRSA strains); assay: Antimicrobial effect on Gram positive bacteria (Table 8); type: cell-based; set-up: key to antimicrobial effect on Gram positive bacteria: MIC (concentration giving 99% inhibition), concentrations in μg; settings: compound alone
Description: MIC experiments of the antimicrobial agents were determined by a modified broth microdilution method in accordance with the Clinical and Laboratory Standards Institute (CLSI) guidelines using 96 well culture plates. In brief, serial dilutions of all plates were prepared at different concentrations (μg). The inoculum suspension was prepared by adding isolated colonies from a 18-20 hours on TSA plate into phosphate buffer (0.31 mM, pH 7.2) or in water for injection (BBraun) and adjusting the suspension to a turbidity equivalent to 0.5 McFarland Standard. Each well contained a final bacterial concentration of approximately 5×10^5 colony forming units (CFU)/mL. The plate was covered and incubated at 35° C. for 24 hours. […] For the microdilution plates, turbidity in wells can be measured at OD600 using TECAN infinite M200Pro. MIC was determined as […] concentration that gives a 99 percent inhibition.
The antimicrobial activity of the inventive combination was also tested against Gram positive bacteria, including the multi-drug resistant strains, such as MRSA. […] This means the combination of LC100/LC101 with colistin has broad antimicrobial spectrum, being active against both Gram positive and Gram negative bacteria.

[6] = Calcein leakage from large unilamellar vesicles; settings: vesicles of 100 nm, DOPE/DOPG=3/1
From the text: FIG. 20 refers to a graph showing calcein leakage of LC100 and LC101 using large unilamellar vesicles of 100 nm. The lipid composition of the vesicle is DOPE/DOPG=3/1, mimicking the bacterial inner membrane. […] Further increase of LC100 or LC101 leads to decrease in the florescence because of a fluorescence quenching effect.

[7] = system: 6083655967 [MCR 1+; E.Coli]; assay: Synergistic study between LC100 or LC101 with B2088; type: cell-based; settings: for Combination MIC: strain 6083655967, value of each component
Description: as §2
Using the combination of LC100 and colistin, the activity of a broad range of strains was further tested (Table 7).

CCN(CC)CCCCOc1ccc(/C=C/C(=O)c2ccc(OCCCCN(CC)CC)c(CC=C(C)C)c2O)cc1 [LC100]
Colistin MIC in the presence of LC100 ([1]; LC100 greater than 5 μg/ml, as low as): 0.0975 µg/mL
concentration at which the compound shows synergy with colistin ([1]; against mcr-1 bacteria): 2 µg/mL
synergy with colistin ([1]; against mcr-1 bacteria, in words): excellent synergy
Colistin MIC in the presence of the compound ([1]; strain 6075066346, MCR(+), compound at 2 μg): 1.56 µg/mL
Colistin MIC in the presence of the compound ([1]; strain 6075066346, MCR(+), compound at 3 μg): 0.78 µg/mL
Colistin MIC in the presence of the compound ([1]; strain 6075066346, MCR(+), compound at 5 μg (Table 2a: 5 ug/ml)): 0.195 µg/mL
Colistin MIC in the presence of the compound ([1]; strain 6075066346, MCR(+), compound at 10 μg (Table 2a: 10 ug/ml)): <0.098 µg/mL
Colistin MIC in the presence of the compound ([1]; strain 6075066346, MCR(+), compound at 10 μg (Table 2a: 10 ug/ml), listed as LC 100): <0.0975 µg/mL
Colistin MIC in the presence of the compound ([1]; strain 6083655967, MCR(+), compound at 2 μg): 1.56 µg/mL
Colistin MIC in the presence of the compound ([1]; strain 6083655967, MCR(+), compound at 3 μg): 0.39 µg/mL
Colistin MIC in the presence of the compound ([1]; strain 6083655967, MCR(+), compound at 5 μg (Table 2a: 5 ug/ml)): 0.195 µg/mL
Colistin MIC in the presence of the compound ([1]; strain 6083655967, MCR(+), compound at 10 μg (Table 2a: 10 ug/ml)): <0.098 µg/mL
Colistin MIC in the presence of the compound ([1]; strain 6083655967, MCR(+), compound at 10 μg (Table 2a: 10 ug/ml), listed as LC 100): <0.0975 µg/mL
Colistin MIC in the presence of the compound ([1]; strain 6103645107, MCR(+), compound at 2 μg): 1.56 µg/mL
Colistin MIC in the presence of the compound ([1]; strain 6103645107, MCR(+), compound at 3 μg): 0.78 µg/mL
Colistin MIC in the presence of the compound ([1]; strain 6103645107, MCR(+), compound at 5 μg (Table 2a: 5 ug/ml)): 0.195 µg/mL
Colistin MIC in the presence of the compound ([1]; strain 6103645107, MCR(+), compound at 10 μg (Table 2a: 10 ug/ml)): <0.098 µg/mL
Colistin MIC in the presence of the compound ([1]; strain 6103645107, MCR(+), compound at 10 μg (Table 2a: 10 ug/ml), listed as LC 100): <0.0975 µg/mL
Colistin MIC in the presence of the compound ([1]; strain 6123520276, MCR(+), compound at 2 μg): 1.56 µg/mL
Colistin MIC in the presence of the compound ([1]; strain 6123520276, MCR(+), compound at 3 μg): 0.78 µg/mL
Colistin MIC in the presence of the compound ([1]; strain 6123520276, MCR(+), compound at 5 μg (Table 2a: 5 ug/ml)): 0.195 µg/mL
Colistin MIC in the presence of the compound ([1]; strain 6123520276, MCR(+), compound at 10 μg (Table 2a: 10 ug/ml)): <0.098 µg/mL
Colistin MIC in the presence of the compound ([1]; strain 6123520276, MCR(+), compound at 10 μg (Table 2a: 10 ug/ml), listed as LC 100): <0.0975 µg/mL
Colistin MIC in the presence of the compound ([1]; strain 7013177695, MCR(+), compound at 2 μg): 1.56 µg/mL
Colistin MIC in the presence of the compound ([1]; strain 7013177695, MCR(+), compound at 3 μg): 0.39 µg/mL
Colistin MIC in the presence of the compound ([1]; strain 7013177695, MCR(+), compound at 5 μg (Table 2a: 5 ug/ml)): 0.195 µg/mL
Colistin MIC in the presence of the compound ([1]; strain 7013177695, MCR(+), compound at 10 μg (Table 2a: 10 ug/ml)): <0.098 µg/mL
Colistin MIC in the presence of the compound ([1]; strain 7013177695, MCR(+), compound at 10 μg (Table 2a: 10 ug/ml), listed as LC 100): <0.0975 µg/mL
Colistin MIC in the presence of the compound ([1]; strain 7023436560, MCR(+), compound at 2 μg): 1.56 µg/mL
Colistin MIC in the presence of the compound ([1]; strain 7023436560, MCR(+), compound at 3 μg): 0.39 µg/mL
Colistin MIC in the presence of the compound ([1]; strain 7023436560, MCR(+), compound at 5 μg (Table 2a: 5 ug/ml)): 0.195 µg/mL
Colistin MIC in the presence of the compound ([1]; strain 7023436560, MCR(+), compound at 10 μg (Table 2a: 10 ug/ml)): <0.098 µg/mL
Colistin MIC in the presence of the compound ([1]; strain 7023436560, MCR(+), compound at 10 μg (Table 2a: 10 ug/ml), listed as LC 100): <0.0975 µg/mL
Colistin MIC in the presence of the compound ([1]; strain 7023444207, MCR(+), compound at 2 μg): 1.56 µg/mL
Colistin MIC in the presence of the compound ([1]; strain 7023444207, MCR(+), compound at 3 μg): 0.39 µg/mL
Colistin MIC in the presence of the compound ([1]; strain 7023444207, MCR(+), compound at 5 μg (Table 2a: 5 ug/ml)): 0.195 µg/mL
Colistin MIC in the presence of the compound ([1]; strain 7023444207, MCR(+), compound at 10 μg (Table 2a: 10 ug/ml)): <0.098 µg/mL
Colistin MIC in the presence of the compound ([1]; strain 7023444207, MCR(+), compound at 10 μg (Table 2a: 10 ug/ml), listed as LC 100): <0.0975 µg/mL
colistin level to which E. coli became sensitive in the presence of LC100 ([2]; resistant bacteria without mcr-1): < 0.5 µg/mL
Colistin MIC in the presence of the compound ([2]; strain 6083672926, MCR(−), compound at 2 μg): <0.0975 µg/mL
Colistin MIC in the presence of the compound ([2]; strain 6083672926, MCR(−), compound at 5 μg (Table 2a: 5 ug/ml)): 0.195 µg/mL
Colistin MIC in the presence of the compound ([2]; strain 6083672926, MCR(−), compound at 10 μg (Table 2a: 10 ug/ml)): <0.098 µg/mL
Colistin MIC in the presence of the compound ([2]; strain 6083672926, MCR(−), compound at 10 μg (Table 2a: 10 ug/ml), listed as LC 100): <0.0975 µg/mL
Colistin MIC in the presence of the compound ([2]; strain 7023446108, MCR(−), compound at 2 μg): <0.0975 µg/mL
Colistin MIC in the presence of the compound ([2]; strain 7023446108, MCR(−), compound at 5 μg (Table 2a: 5 ug/ml)): 0.195 µg/mL
Colistin MIC in the presence of the compound ([2]; strain 7023446108, MCR(−), compound at 10 μg (Table 2a: 10 ug/ml)): <0.098 µg/mL
Colistin MIC in the presence of the compound ([2]; strain 7023446108, MCR(−), compound at 10 μg (Table 2a: 10 ug/ml), listed as LC 100): <0.0975 µg/mL
Colistin MIC in the presence of the compound ([2]; strain 7033607097, MCR(−), compound at 2 μg): <0.0975 µg/mL
Colistin MIC in the presence of the compound ([2]; strain 7033607097, MCR(−), compound at 5 μg (Table 2a: 5 ug/ml)): 0.195 µg/mL
Colistin MIC in the presence of the compound ([2]; strain 7033607097, MCR(−), compound at 10 μg (Table 2a: 10 ug/ml)): <0.098 µg/mL
Colistin MIC in the presence of the compound ([2]; strain 7033607097, MCR(−), compound at 10 μg (Table 2a: 10 ug/ml), listed as LC 100): <0.0975 µg/mL
Colistin MIC in the presence of the compound ([3]; compound at 2 μg): <0.0975 µg/mL
Colistin MIC in the presence of the compound ([3]; compound at 5 μg (Table 2a: 5 ug/ml)): 0.195 µg/mL
Colistin MIC in the presence of the compound ([3]; compound at 10 μg (Table 2a: 10 ug/ml)): <0.098 µg/mL
Colistin MIC in the presence of the compound ([3]; compound at 10 μg (Table 2a: 10 ug/ml), listed as LC 100): <0.0975 µg/mL
Colistin MIC in the presence of LC100 ([4]; strain ACBA 1010, LC 100 2 μg): <0.0975 µg/mL
Colistin MIC in the presence of LC100 ([4]; strain ACBA 1010, LC 100 5 μg): <0.0975 µg/mL
Colistin MIC in the presence of LC100 ([4]; strain ACBA 1012, LC 100 2 μg): 0.39 µg/mL
Colistin MIC in the presence of LC100 ([4]; strain ACBA 1012, LC 100 5 μg): <0.0975 µg/mL
Colistin MIC in the presence of LC100 ([4]; strain ACBA 43357, LC 100 2 μg): 0.39 µg/mL
Colistin MIC in the presence of LC100 ([4]; strain ACBA 43357, LC 100 5 μg): <0.0975 µg/mL
Colistin MIC in the presence of LC100 ([4]; strain ACBA ATCC 19606, LC 100 2 μg): 0.195 µg/mL
Colistin MIC in the presence of LC100 ([4]; strain ACBA ATCC 19606, LC 100 5 μg): <0.0975 µg/mL
activity against Gram positive strains ([5]; in words): good activity
antimicrobial effect on Gram positive bacteria ([5]; strain MRSA ATCC 43300): 3.125
antimicrobial effect on Gram positive bacteria ([5]; strain MRSA ATCC 700699): 3.125
antimicrobial effect on Gram positive bacteria ([5]; strain MRSA DM 21455): 3.125
antimicrobial effect on Gram positive bacteria ([5]; strain SA ATCC 6538): 3.125
antimicrobial effect on Gram positive bacteria ([5]; strain SA ATCC 29213): 3.125
antimicrobial effect on Gram positive bacteria ([5]; strain SA DM 4400R): 3.125
calcein leakage / disruption of vesicles [6]: significant florescence was detected; also recorded: disrupts liposomes
Combination MIC ([7]; combination B2088 (Ac) + LC 100): 2 µg/mL
Combination MIC ([7]; combination B2088 + LC 100): 1 µg/mL
level of synergistic effect with B2088 ([7]; killing E. coli with the mcr-1 mutation): 1 µg/mL
